SMILES strings stand for the structures.

In one assay the test system is FoxO3a. The assay can be described thus: FoxO3a inhibition assay (GFP-FoxO3a nuclear to cytoplasmic translocation) in U2OS GFP-FoxO3a H212R reporter cells. It counts as cell-based. The following applies: Homo sapiens, 0.5 h, serum starved overnight, 30 minutes compound treatment, ratio of nuclear to cytosolic GFP intensity, AC50 = concentration that results in 50% activation or inhibition, read-out: FoxO AC50. The method, then: (§1) Phosphorylation of Akt on S473 and FoxO3a nuclear to cytoplasmic translocation were used as readouts of PI3K/Akt/mTOR pathway activation downstream of growth factor signaling.
(§2) Reporter cell line. U2OS GFP-FoxO3a H212R reporter cell line was established by transducing U2OS cells with the retroviral plasmid pLEGFP-C1 containing FoxO3a H212R transgene and selecting for G418 resistant clones.
(§3) Reporter assay. U2OS GFP-FoxO3a H212R cells were plated in 384-well plates at 4000 cells per well in 30 microliters of McCoy's 5A medium containing 10% FBS. On day 1 the cells were washed with serum free medium and serum starved overnight. On day 2 the cells were treated with different doses of the compounds for 30 minutes, fixed with 4% Paraformaldehyde for 1 hour and stained with Phospho-AKT (Ser473) antibody (Cell Signaling Technology, catalog #4060) overnight at 4° C. After nuclei staining with Hoechst 33342 (Life Technologies, catalog # H3570) the plates were imaged with InCell 2000 (GE Healthcare Bio-Sciences). FoxO3a inhibition activity is calculated as the ratio of nuclear to cytosolic GFP intensity in percent. Akt activation is measured as the total cellular intensity of Phospho-Akt antibody staining in percent. DMSO control is set as 0% activity.

The test system of a further assay is Akt. The assay can be described thus: Akt activation assay (Phospho-AKT (Ser473) antibody staining) in U2OS GFP-FoxO3a H212R reporter cells. Format: cell-based. The settings on record: Homo sapiens, 0.5 h, serum starved overnight, 30 minutes compound treatment, total cellular intensity of Phospho-Akt (Ser473) antibody staining, AC50 = concentration that results in 50% activation or inhibition. The method, then:
as §1, §2, §3

As for `Cc1cc(C(N)=O)nn1-c1ccc(Cc2ccc(-c3ccc([C@@H]4CCCN4C)cc3)cc2)cc1` [Example 5-8, (S)-5-methyl-1-(4-((4′-(1-methylpyrrolidin-2-yl)-[1,1′-biphenyl]-4-yl)methyl)phenyl)-1H-pyrazole-3-carboxamide], the results for the AC50 in the assay with FoxO3a and with Akt were 76 nM and 145 nM, respectively.

`Cc1cc(C(N)=O)nn1-c1ccc(C(C)(C)c2ccc(-c3ccc(CN4CCCC4)cc3)cc2)cc1` [Example 6-1, 5-methyl-1-(4-(2-(4′-(pyrrolidin-1-ylmethyl)-[1,1′-biphenyl]-4-yl)propan-2-yl)phenyl)-1H-pyrazole-3-carboxamide]: the concentration at half-maximal activity (AC50) (commonly the concentration giving half of the maximal activity seen) in the assay with FoxO3a is 115 nM; with Akt, 292 nM.

With `Cc1cc(C(N)=O)nn1-c1ccc(C(C)(C)c2ccc(-c3cccc(S(C)(=O)=O)c3)cc2)cc1` [Example 6-2, 5-methyl-1-(4-(2-(3′-(methylsulfonyl)-[1,1′-biphenyl]-4-yl)propan-2-yl)phenyl)-1H-pyrazole-3-carboxamide], the AC50 came to 480 nM with FoxO3a and 1810 nM in the assay on Akt.

Regarding `Cc1cc(C(N)=O)nn1-c1ccc(C(C)(C)c2ccc(-c3ccncc3)cc2)cc1` [Example 6-3, 5-methyl-1-(4-(2-(4-(pyridin-4-yl)phenyl)propan-2-yl)phenyl)-1H-pyrazole-3-carboxamide], the AC50 with FoxO3a is 149 nM; with Akt, 432 nM.

With `Cc1cc(C(N)=O)nn1-c1ccc(C(C)(C)c2ccc(-c3ccc4[nH]ncc4c3)cc2)cc1` [Example 6-4, 1-(4-(2-(4-(1H-indazol-5-yl)phenyl)propan-2-yl)phenyl)-5-methyl-1H-pyrazole-3-carboxamide], the AC50 in the assay on FoxO3a came to 517 nM; in the assay with Akt, 1040 nM.

On to `Cc1cc(C(N)=O)nn1-c1ccc(C(C)(C)c2ccc(-c3ccnc(N)c3)cc2)cc1` [Example 6-5, 1-(4-(2-(4-(2-aminopyridin-4-yl)phenyl)propan-2-yl)phenyl)-5-methyl-1H-pyrazole-3-carboxamide], for which the values for the half-maximal activity concentration (AC50) with FoxO3a and in the assay with Akt were 134 nM and 415 nM, respectively.

As to `Cc1nnc(-c2ccc(-c3ccc(C(C)(C)c4ccc(-n5nc(C(N)=O)cc5C)cc4)cc3)cc2)o1` [Example 6-6, 5-methyl-1-(4-(2-(4′-(5-methyl-1,3,4-oxadiazol-2-yl)-[1,1′-biphenyl]-4-yl)propan-2-yl)phenyl)-1H-pyrazole-3-carboxamide], the AC50 in the assay on FoxO3a turned out to be 283 nM; in the assay on Akt it was 842 nM.

As for `Cc1cc(C(N)=O)nn1-c1ccc(C(C)(C)c2ccc(C3=CCC(=O)CC3)cc2)cc1` [Example 7, 5-methyl-1-(4-(2-(4′-oxo-2′,3′,4′,5′-tetrahydro-[1,1′-biphenyl]-4-yl)propan-2-yl)phenyl)-1H-pyrazole-3-carboxamide], the AC50 in the assay on FoxO3a came to 58 nM; in the assay with Akt, 276 nM.

As for `Cc1cc(C(N)=O)nn1-c1ccc(C(C)(C)c2ccc(C3=CCC(N4CCOCC4)CC3)cc2)cc1` (stereo not drawn) [Example 8, 5-methyl-1-(4-(2-(4′-morpholino-2′,3′,4′,5′-tetrahydro-[1,1′-biphenyl]-4-yl)propan-2-yl)phenyl)-1H-pyrazole-3-carboxamide], the AC50 in the assay with FoxO3a was 96 nM; in the assay with Akt, 377 nM.

As to `Cc1cc(C(N)=O)nn1-c1ccc(C(C)(C)c2ccc(C3=CCC(O)CC3)cc2)cc1` (stereo not drawn) [Example 9, 1-(4-(2-(4′-hydroxy-2′,3′,4′,5′-tetrahydro-[1,1′-biphenyl]-4-yl)propan-2-yl)phenyl)-5-methyl-1H-pyrazole-3-carboxamide], the AC50 in the assay on FoxO3a was found to be 253 nM; with Akt, 532 nM.

On to `Cc1cc(C(N)=O)nn1-c1ccc(C(C)(C)c2ccc(-c3ccccn3)cc2)cc1` [Example 10, 5-methyl-1-(4-(2-(4-(pyridin-2-yl)phenyl)propan-2-yl)phenyl)-1H-pyrazole-3-carboxamide], for which the AC50 came out at 470 nM in the assay on FoxO3a and 733 nM in the assay on Akt.

As to `Cc1cc(C(N)=O)nn1-c1ccc(C(C)(C)c2ccc(-c3ccc(C4(CN)COC4)cc3)cc2)cc1` [Example 11, 1-(4-(2-(4′-(3-(aminomethyl)oxetan-3-yl)-[1,1′-biphenyl]-4-yl)propan-2-yl)phenyl)-5-methyl-1H-pyrazole-3-carboxamide], the AC50 in the assay on FoxO3a came to 607 nM; in the assay on Akt, 1190 nM.

`Cc1cc(C(N)=O)nn1-c1ccc(C(C)(C)c2ccc(-c3ccc(C4(N)COC4)cc3)cc2)cc1` [Example 12, 1-(4-(2-(4′-(3-aminooxetan-3-yl)-[1,1′-biphenyl]-4-yl)propan-2-yl)phenyl)-5-methyl-1H-pyrazole-3-carboxamide]: the AC50 in the assay with FoxO3a is 93 nM; in the assay on Akt, 283 nM.

In the case of `Cc1nc(C(N)=O)nn1-c1ccc(C(C)(C)c2ccc(-c3ccc(CN4CCCC4)cc3)cc2)cc1` [Example 13-1, 5-methyl-1-(4-(2-(4′-(pyrrolidin-1-ylmethyl)-[1,1′-biphenyl]-4-yl)propan-2-yl)phenyl)-1H-1,2,4-triazole-3-carboxamide], the AC50 with FoxO3a turned out to be 128 nM; in the assay on Akt, 375 nM.

Turning to `Cc1nc(C(N)=O)nn1-c1ccc(C(C)(C)c2ccc(-c3ccc(S(=O)(=O)N(C)C)cc3)cc2)cc1` [Example 13-2], the results for the AC50 in the assay on FoxO3a and with Akt were 112 nM and 252 nM, respectively.

Consider `Cc1nc(C(N)=O)nn1-c1ccc(C(C)(C)c2ccc(-c3ccc4ncccc4c3)cc2)cc1` [Example 13-3], for which the results for the AC50 in the assay with FoxO3a and with Akt were 311 nM and 943 nM, respectively.

As for `Cc1nc(C(N)=O)nn1-c1ccc(C(C)(C)c2ccc(-c3ccc4nccnc4c3)cc2)cc1` [Example 13-4], the results for the AC50 in the assay with FoxO3a and with Akt were 429 nM and 1240 nM, respectively.

As to `Cc1nc(C(N)=O)nn1-c1ccc(C(C)(C)c2ccc(-c3ccc4ccncc4c3)cc2)cc1` [Example 13-5], the values for the AC50 with FoxO3a and in the assay on Akt were 147 nM and 446 nM, respectively.

Regarding `Cc1nc(C(N)=O)nn1-c1ccc(C(C)(C)c2ccc(-c3ccc4scnc4c3)cc2)cc1` [Example 13-7], the AC50 in the assay on FoxO3a amounted to 159 nM; in the assay with Akt it was 504 nM.

For the compound `Cc1nc(C(N)=O)nn1-c1ccc(C(C)(C)c2ccc(-c3cnn(C)c3)cc2)cc1` [Example 13-8], the AC50 worked out at 664 nM with FoxO3a and 1750 nM in the assay on Akt.

Regarding `Cc1cc(-c2ccc(C(C)(C)c3ccc(-n4nc(C(N)=O)nc4C)cc3)cc2)ccn1` [Example 13-9], the AC50 in the assay with FoxO3a was 183 nM; in the assay with Akt it was 714 nM.

Take `Cc1nc(C(N)=O)nn1-c1ccc(C(C)(C)c2ccc(-c3ccc(C#N)nc3)cc2)cc1` [Example 13-10]: the AC50 in the assay with FoxO3a worked out at 489 nM; with Akt it was 1180 nM.

In the case of `Cc1nc(C(N)=O)nn1-c1ccc(C(C)(C)c2ccc(-c3cnc4c(c3)OCCN4C)cc2)cc1` [Example 13-11], the AC50 was 416 nM with FoxO3a and 1000 nM in the assay with Akt.

Consider `Cc1nc(C(N)=O)nn1-c1ccc(C(C)(C)c2ccc(-c3ccc(CN4CCOCC4)cc3)cc2)cc1` [Example 13-12], for which the AC50 with FoxO3a came to 64 nM; with Akt it was 261 nM.

With `Cc1nnc(-c2cccc(-c3ccc(C(C)(C)c4ccc(-n5nc(C(N)=O)nc5C)cc4)cc3)c2)o1` [Example 13-13], the values for the AC50 with FoxO3a and with Akt were 179 nM and 506 nM, respectively.

Turning to `Cc1nc(C(N)=O)nn1-c1ccc(C(C)(C)c2ccc(-c3ccc(N4CCCC4)nc3)cc2)cc1` [Example 13-14], the AC50 in the assay on FoxO3a stood at 386 nM; with Akt, 1170 nM.

For `Cc1nc(C(N)=O)nn1-c1ccc(C(C)(C)c2ccc(-c3ccc(N4CCOCC4)nc3)cc2)cc1` [Example 13-15], the AC50 with FoxO3a was 114 nM; with Akt, 493 nM.

As to `Cc1nc(C(N)=O)nn1-c1ccc(C(C)(C)c2ccc(-c3ccsc3)cc2)cc1` [Example 13-16], the figures for the AC50 with FoxO3a and in the assay on Akt were 377 nM and 926 nM, respectively.

Regarding `Cc1nc(C(N)=O)nn1-c1ccc(C(C)(C)c2ccc(-c3ccc(C(N)C(F)(F)F)cc3)cc2)cc1` (stereo not drawn) [Example 14, 1-(4-(2-(4′-(1-amino-2,2,2-trifluoroethyl)-[1,1′-biphenyl]-4-yl)propan-2-yl)phenyl)-5-methyl-1H-1,2,4-triazole-3-carboxamide], the AC50 with FoxO3a was 113 nM; in the assay on Akt, 180 nM.

For `Cc1nc(C(N)=O)nn1-c1ccc(Cc2ccc(-c3ccc(CN4CCN(C)CC4)cc3)cc2)cc1` [Example 15-1, 5-methyl-1-(4-((4′-((4-methylpiperazin-1-yl)methyl)-[1,1′-biphenyl]-4-yl)methyl)phenyl)-1H-1,2,4-triazole-3-carboxamide], the values for the AC50 in the assay on FoxO3a and with Akt were 69 nM and 166 nM, respectively.

On to `Cc1nc(C(N)=O)nn1-c1ccc(Cc2ccc(-c3cccnc3)cc2)cc1` [Example 15-2], for which the AC50 came out at 277 nM with FoxO3a and 888 nM in the assay with Akt.

`Cc1nc(C(N)=O)nn1-c1ccc(Cc2ccc(-c3ccc(C(=O)N4CCN(C)CC4)cc3)cc2)cc1` [Example 15-3]: the values for the AC50 in the assay on FoxO3a and in the assay with Akt were 60 nM and 188 nM, respectively.

For the compound `Cc1nc(C(N)=O)nn1-c1ccc(Cc2ccc(-c3ccc(CN4CCCC4)cc3)cc2)cc1` [Example 15-4], the AC50 was 33 nM in the assay with FoxO3a and 99 nM in the assay with Akt.

Values taken from patent publication US10633350B2, “Diphenyl derivatives and uses thereof” (NOVARTIS AG, priority 2017, dated 2020).
